From patent US20250353830A1, “NOVEL COMPOUNDS” (Hoffmann-La Roche Inc., priority 2022, published 2025)

How the values were obtained:
[1] = biological target: T1, NLRP3 (Homo sapiens, UniProt Q96P20); experiment: THP-1 cells pyroptosis assay (LPS priming, nigericin, resazurin read-out); type: cell-based; parameters: Seed THP-1 cells (25,000 cells/well) containing 1.0 μg/ml LPS; host or cells: THP-1 cells, LPS-primed, nigericin-stimulated; conditions: 1 μg/ml LPS, 3 hours compound, 5 μM nigericin 1 hr
Experimental: THP-1 cells (ATCC #TIB-202) were grown in RPMI containing L-glutamine (Gibco #11835) supplemented with 1 mM sodium pyruvate (Sigma #S8636) and penicillin (100 units/ml)/streptomycin (0.1 mg/ml) (Sigma #P4333) in 10% Fetal Bovine Serum (FBS) (Sigma #F0804). The cells were routinely passaged and grown to confluency (˜10^6 cells/ml). On the day of the experiment, THP-1 cells were harvested and resuspended into RPMI medium (without FBS). The cells were then counted and viability (>90%) checked by Trypan blue (Sigma #T8154). Appropriate dilutions were made to give a concentration of 625,000 cells/ml. To this diluted cell solution was added LPS (Sigma #L4524) to give a 1 μg/ml Final Assay Concentration (FAC). 40 μl of the final preparation was aliquoted into each well of a 96-well plate. The plate thus prepared was used for compound screening.
The following method step-by-step assay was followed for compound screening. • 1. Seed THP-1 cells (25,000 cells/well) containing 1.0 μg/ml LPS in 40 μl of RPMI medium (without FBS) in 96-well, black walled, clear bottom cell culture plates coated with poly-D-lysine (VWR #734-0317) • 2. Add 5 μl compound (8 points half-log dilution, with 10 μM top dose) or vehicle (DMSO 0.1% FAC) to the appropriate wells • 3. Incubate for 3 hours at 37° C., 5% CO2 • 4. Add 5 μl nigericin (Sigma #N7143) (FAC 5 μM) to all wells • 5. Incubate for 1 hr at 37° C., 5% CO2 • 6. At the end of the incubation period, spin plates at 300×g for 3 mins and remove supernatant • 7. Then add […] of resazurin (Sigma #R7017) (FAC 100 μM resazurin in RPMI medium without FBS) and incubate plates for a further 1-2 hours at 37° C. and 5% CO2 • 8. Plates were read in an Envision reader at Ex 560 nm and Em 590 nm • 9. IC50 data is fitted to a non-linear regression equation (log inhibitor vs response-variable slope 4-parameters)

[2] = biological target: T1, NLRP3; experiment: Human whole blood IL-1β release assay (LPS, nigericin, AlphaLisa); type: cell-based; parameters: Plate out 80 μl of whole blood containing 1 μg/ml of LPS; from tissue; host or cells: human whole blood from healthy donors, LPS-primed, nigericin-stimulated; conditions: 1 μg/ml LPS, 3 hours compound, 10 μM nigericin 1 hr, IL-1β in supernatant
Experimental: For systemic delivery, the ability to inhibit NLRP3 when the compounds are present within the bloodstream is of great importance. For this reason, the NLRP3 inhibitory activity of a number of compounds in human whole blood was investigated in accordance with the following protocol.
Human whole blood in Li-heparin tubes was obtained from healthy donors from a volunteer donor panel. • 1. Plate out 80 μl of whole blood containing 1 μg/ml of LPS in 96-well, clear bottom cell culture plate (Corning #3585) • 2. Add 10 μl compound (8 points half-log dilution with 10 μM top dose) or vehicle (DMSO 0.1% FAC) to the appropriate wells • 3. Incubate for 3 hours at 37° C., 5% CO2 • 4. Add 10 μl nigericin (Sigma #N7143) (10 μM FAC) to all wells • 5. Incubate for 1 hr at 37° C., 5% CO2 • 6. At the end of the incubation period, spin plates at 300×g for 5 mins to pellet cells and remove 20 μl of supernatant and add to 96-well v-bottom plates for IL-1β analysis (note: these plates containing the supernatants can be stored at −80° C. to be analysed at a later date) • 7. IL-1β was measured according to the manufacturer protocol (Perkin Elmer-AlphaLisa IL-1 Kit AL220F-5000) • 8. IC50 data is fitted to a non-linear regression equation (log inhibitor vs response-variable slope 4-parameters)

T1 sequence (Q96P20 whole entry): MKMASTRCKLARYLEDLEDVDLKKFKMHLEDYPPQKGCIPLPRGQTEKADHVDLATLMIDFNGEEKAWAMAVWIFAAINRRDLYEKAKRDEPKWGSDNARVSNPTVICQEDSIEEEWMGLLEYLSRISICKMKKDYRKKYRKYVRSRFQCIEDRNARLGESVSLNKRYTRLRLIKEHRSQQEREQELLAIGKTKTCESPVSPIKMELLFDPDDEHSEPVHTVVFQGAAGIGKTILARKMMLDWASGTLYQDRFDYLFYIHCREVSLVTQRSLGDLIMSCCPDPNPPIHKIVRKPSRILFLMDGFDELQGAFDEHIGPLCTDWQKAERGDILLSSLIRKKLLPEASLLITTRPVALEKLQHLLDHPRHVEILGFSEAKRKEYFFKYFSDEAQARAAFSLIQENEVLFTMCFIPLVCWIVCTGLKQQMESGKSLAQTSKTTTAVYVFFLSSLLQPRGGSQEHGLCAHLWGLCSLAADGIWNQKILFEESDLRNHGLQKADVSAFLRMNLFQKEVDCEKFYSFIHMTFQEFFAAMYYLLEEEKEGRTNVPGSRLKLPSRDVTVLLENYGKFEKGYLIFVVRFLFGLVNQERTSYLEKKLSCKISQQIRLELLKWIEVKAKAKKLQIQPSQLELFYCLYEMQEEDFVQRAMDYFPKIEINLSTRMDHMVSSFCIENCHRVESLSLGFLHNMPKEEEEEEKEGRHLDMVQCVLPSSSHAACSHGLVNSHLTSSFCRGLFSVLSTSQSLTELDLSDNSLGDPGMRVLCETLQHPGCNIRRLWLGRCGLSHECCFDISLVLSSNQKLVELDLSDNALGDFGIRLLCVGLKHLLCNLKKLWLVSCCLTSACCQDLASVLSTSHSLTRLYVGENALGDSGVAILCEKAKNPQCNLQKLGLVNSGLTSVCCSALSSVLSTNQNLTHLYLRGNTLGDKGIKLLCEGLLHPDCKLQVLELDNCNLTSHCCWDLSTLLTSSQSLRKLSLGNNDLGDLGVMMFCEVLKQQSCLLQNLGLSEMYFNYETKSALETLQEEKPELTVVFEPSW

| SMILES | IC50 [1] [nM] | IC50 [2] [nM] |
| --- | --- | --- |
| CCN1CCC[C@@H](Nc2cc(C)c(-c3ccc4cc[nH]c4c3)nn2)C1 [Example 1, N-[(3R)-1-Ethyl-3-piperidyl]-6-(1H-indol-6-yl)-5-methyl-pyridazin-3-amine] | 5.1 | 17.1 |
| CCN1CCC[C@@H](Nc2cc(C)c(-c3ccc4c(F)c[nH]c4c3)nn2)C1 [Example 2, N-[(3R)-1-Ethyl-3-piperidyl]-6-(3-fluoro-1H-indol-6-yl)-5-methyl-pyridazin-3-amine] | 2.7 | 9.5 |
| CCN1CCC[C@@H](Nc2cc(C)c(-c3cc4[nH]ccc4cc3F)nn2)C1 [Example 3, N-[(3R)-1-ethyl-3-piperidyl]-6-(5-fluoro-1H-indol-6-yl)-5-methyl-pyridazin-3-amine] | 9.2 | 48.6 |
| CCN1CCC[C@@H](Nc2cc(C)c(-c3ccc4c(C)c[nH]c4c3)nn2)C1 [Example 4, N-[(3R)-1-Ethyl-3-piperidyl]-5-methyl-6-(3-methyl-1H-indol-6-yl)pyridazin-3-amine] | 43.7 | 234 |
| CCN1CCC[C@@H](Nc2cc(C)c(-c3ccc4cc(C)[nH]c4c3)nn2)C1 [Example 6, N-[(3R)-1-Ethyl-3-piperidyl]-5-methyl-6-(2-methyl-1H-indol-6-yl)pyridazin-3-amine] | 12.3 | 56.2 |
| CCN1CCC[C@@H](Nc2cc(C)c(-c3ccc4c(C#N)c[nH]c4c3)nn2)C1 [Example 7, 6-[6-[[(3R)-1-Ethyl-3-piperidyl]amino]-4-methyl-pyridazin-3-yl]-1H-indole-3-carbonitrile] | 133 | – |
| CCN1CCC[C@@H](Nc2cc(C)c(-c3ccc4cc(C#N)[nH]c4c3)nn2)C1 [Example 8, 6-[6-[[(3R)-1-Ethyl-3-piperidyl]amino]-4-methyl-pyridazin-3-yl]-1H-indole-2-carbonitrile] | 123 | – |
| Cc1cc(N[C@@H]2CCCN(C)C2)nnc1-c1ccc2c(F)c[nH]c2c1 [Example 9, 6-(3-Fluoro-1H-indol-6-yl)-5-methyl-N-[(3R)-1-methyl-3-piperidyl]pyridazin-3-amine] | 4.9 | 26.5 |
| CCN1CCC[C@@H](Nc2cc(C)c(-c3ccc4cc[nH]c4c3F)nn2)C1 [Example 10, N-[(3R)-1-ethyl-3-piperidyl]-6-(7-fluoro-1H-indol-6-yl)-5-methyl-pyridazin-3-amine] | 22.6 | 45.1 |
| CCN1CCC[C@@H](Nc2cc(C(F)(F)F)c(-c3ccc4c(F)c[nH]c4c3)nn2)C1 [Example 11, N-[(3R)-1-Ethyl-3-piperidyl]-6-(3-fluoro-1H-indol-6-yl)-5-(trifluoromethyl)pyridazin-3-amine] | 5.1 | 44.1 |
| CCc1cc(N[C@@H]2CCCN(CC)C2)nnc1-c1ccc2c(F)c[nH]c2c1 [Example 12, 5-Ethyl-N-[(3R)-1-ethyl-3-piperidyl]-6-(3-fluoro-1H-indol-6-yl)pyridazin-3-amine] | 18.3 | 25.4 |
| CCN1CCC[C@@H](Nc2nnc(-c3ccc4cc[nH]c4c3)c(C)n2)C1 [Example 13, N-[(3R)-1-Ethyl-3-piperidyl]-6-(1H-indol-6-yl)-5-methyl-1,2,4-triazin-3-amine] | 47.3 | 28.6 |

Further lines, results first:

| IC50 [1] [nM] | IC50 [2] [nM] | SMILES |
| --- | --- | --- |
| 2 | 31 | Cc1cc(N2CC[C@@H]3CCN(C)C[C@@H]32)nnc1-c1ccc2c(F)c[nH]c2c1 (single isomer, unassigned) [Example 18A] |
| 55.9 | 43.2 | CCN1CCC[C@@H](Nc2nnc(-c3ccc4c(F)c[nH]c4c3)c(C)n2)C1 [Example 14, N-[(3R)-1-Ethyl-3-piperidyl]-6-(3-fluoro-1H-indol-6-yl)-5-methyl-1,2,4-triazin-3-amine] |
| 27 | 52 | CCN1CCC[C@@H](Nc2nnc(-c3ccc4cc[nH]c4c3)c3c2cnn3C)C1 [Example 15, N-[(3R)-1-Ethyl-3-piperidyl]-7-(1H-indol-6-yl)-1-methyl-pyrazolo[3,4-d]pyridazin-4-amine] |
| 21 | 113 | CCN1CCC[C@@H](Nc2ccc(-c3cc4[nH]ccc4cc3C)nn2)C1 [Example 16, N-[(3R)-1-Ethyl-3-piperidyl]-6-(5-methyl-1H-indol-6-yl)pyridazin-3-amine] |
| 493 | – | Cc1cc(N[C@H]2C[C@@](C)(O)C2)nnc1-c1ccc2c(F)c[nH]c2c1 [Example 17, 3-[[6-(3-Fluoro-1H-indol-6-yl)-5-methyl-pyridazin-3-yl]amino]-1-methyl-cyclobutanol] |
| 37 | 179 | Cc1cc(N2CC[C@H]3CCN(C)C[C@H]32)nnc1-c1ccc2c(F)c[nH]c2c1 [Example 18B, (3aR,7aS)-1-[6-(3-fluoro-1H-indol-6-yl)-5-methyl-pyridazin-3-yl]-6-methyl-3,3a,4,5,7,7a-hexahydro-2H-pyrrolo[2,3-c]pyridine] |
